Results published in patent US4792609A, “Indoline and 1,2,3,4-tetrahydroquinoline N(dicarboalkoxyvinyl) substituted derivatives” (Bayer Aktiengesellschaft, priority 1985, dated 1988).

Assays:
[1] = UV absorption (λmax, molar and specific extinction, intrinsic coloration); type: physicochemical; conditions: for E (molar extinction coefficient): Table 1, at λmax; for specific extinction: text on Table 2, compared with compounds of formula I, in words
[2] = solubility at RT in cosmetic oils; type: physicochemical; conditions: for solubility at RT, groundnut/paraffin oil = 1:9: groundnut/paraffin oil = 1:9, printed as symbol

Row | Structure (SMILES) | λmax ([1]; Table 1) [nm] | E (molar extinction coefficient) [1] [L/mol/cm] | specific extinction E^1 ([1]; Table 2) | λmax ([1]; Table 2) [nm] | solubility at RT, groundnut oil ([2]; printed as symbol) | solubility at RT, groundnut/paraffin oil = 1:9 [2] | specific extinction [1] | solubility at RT, groundnut oil [2] [%]
1 | CC(C)COC(=O)C(=CN1c2ccccc2CC1C)C(=O)OCC(C)C (stereo not drawn) [(4), N-(dicarbo-iso-butoxyvinyl)-2-methylindoline] | 331 | 26200 | 730 | 331 | .infin. | .infin. | – | –
2 | COc1ccc(C(=O)c2cc(S(=O)(=O)O)c(OC)cc2O)c(O)c1 [Comparison example 1, sodium 2,2'-dihydroxy-4,4'-dimethoxybenzophenone-5-sulphonate, reference compound] | – | – | 160 | 330 | – | – | markedly lower specific extinction | –
3 | O=C(c1ccc(O)cc1O)c1ccc(O)cc1O [Comparison example 2, 2,2',4,4'-tetrahydroxybenzophenone, reference compound] | – | – | 645 | 351 | – | – | markedly lower specific extinction | 0.8
4 | COc1ccc(C(=O)CC(=O)c2ccc(OC)cc2)cc1 [Comparison example 3, dianisoylmethane, reference compound] | – | – | – | – | – | – | – | 1

The remaining lines, values ahead:

Row | λmax ([1]; Table 1) [nm] | E (molar extinction coefficient) [1] [L/mol/cm] | specific extinction E^1 ([1]; Table 2) | λmax ([1]; Table 2) [nm] | solubility at RT, groundnut oil ([2]; printed as symbol) | solubility at RT, groundnut/paraffin oil = 1:9 [2] | specific extinction [1] | solubility at RT, groundnut oil [2] [%] | Structure (SMILES)
5 | 330 | 32200 | 1114 | 330 | .infin. | .infin. | – | – | CCOC(=O)C(=CN1CCc2ccccc21)C(=O)OCC [(1), N-(dicarboethoxyvinyl)indoline]
6 | 338 | – | – | 338 | .infin. | .infin. | – | – | CCOC(=O)C(C(=O)OCC)=C(C)N1CCc2ccccc21 [(3), N-(α-methyl-β,β-dicarboethoxyvinyl)indoline]
7 | 332 | 25300 | 582 | 332 | .infin. | .infin. | – | – | CCCCCCOC(=O)C(=CN1c2ccccc2CC1C)C(=O)OCCCCCC (stereo not drawn) [(5), N-(dicarbohexyloxyvinyl)-2-methylindoline]
8 | 317 | 26700 | 878 | 317 | .infin. | .infin. | – | – | CCOC(=O)C(=CN1CCCc2ccccc21)C(=O)OCC [(6), N-(dicarboethoxyvinyl)-1,2,3,4-tetrahydroquinoline]
9 | 330 | 30000 | 1008 | 330 | .infin. | .infin. | – | – | CCOC(=O)C(=CN1c2ccccc2CC1C)C(=O)OCC (stereo not drawn) [Compound (2), N-(dicarboethoxyvinyl)-2-methylindoline]
